The source of these data is ChEMBL document CHEMBL3351731, “Synthesis and cytotoxicity evaluation of 4-amino-4-dehydroxylarctigenin derivatives in glucose-starved A549 tumor cells” (Bioorg Med Chem Lett, 2015).

Assay [1] concerns A549. The assay can be described thus: Cytotoxicity against human A549 cells after 4 days under glucose-starved conditions by MTT assay. It counts as functional, cell-based. The conditions noted are these: A549, 96 h. In general terms: Formazan colour is commonly taken as a measure of viable cells.
Assay [2] deals with A549. Put plainly: Cytotoxicity against human A549 cells after 4 days under normal conditions by MTT assay. Format: cell-based. The settings on record: A549, 96 h.

Molecules are shown by their SMILES.

As usually defined, the IC50 is the concentration at which inhibition is half-maximal. Low values mean higher potency, high ones lower potency. In the case of `CCC(=O)Nc1ccc(C[C@H]2C(=O)OC[C@@H]2Cc2ccc(OC)c(OC)c2)cc1OC`, the half-inhibitory concentration (IC50) in assay [1] and in assay [2] was > 50 µM throughout.

For `COc1cccc(C[C@H]2C(=O)OC[C@@H]2Cc2ccc(OC)c(OC)c2)c1`, the half-inhibitory concentration (IC50) in assay [1] and in assay [2] was > 50 µM throughout.

Consider `COc1cc(C[C@H]2C(=O)OC[C@@H]2Cc2ccc(OC)c(OC)c2)ccc1NCc1ccccc1`, for which the half-inhibitory concentration (IC50) in assay [1] and in assay [2] was > 50 µM throughout.

Turning to `COc1cc(C[C@H]2C(=O)OC[C@@H]2Cc2ccc(OC)c(OC)c2)ccc1Nc1ccccc1`, the IC50 in assay [1] and in assay [2] was > 50 µM in each case.

As to `COc1cc(C[C@H]2C(=O)OC[C@@H]2Cc2ccc(OC)c(OC)c2)ccc1N`, the values for the 50% inhibitory concentration (IC50) in assay [1] and in assay [2] were 2.85 µM and > 50 µM, respectively.

Regarding `COc1cc(C[C@H]2C(=O)OC[C@@H]2Cc2ccc(OC)c(OC)c2)ccc1NC(=O)c1ccccc1`, the half-maximal inhibitory concentration (IC50) in assay [1] and in assay [2] was > 50 µM in each case.

For the compound `COc1cc(C[C@H]2C(=O)OC[C@@H]2Cc2ccc(OC)c(OC)c2)ccc1Nc1ccc(F)cc1`, the IC50 in assay [1] and in assay [2] was > 50 µM throughout.

Take `COc1cc(C[C@H]2C(=O)OC[C@@H]2Cc2ccc(OC)c(OC)c2)ccc1O` [ARCTIGENIN]: the IC50 in assay [1] was 6.57 µM; in assay [2] it was > 50 µM.

As for `COc1ccc(Nc2ccc(C[C@H]3C(=O)OC[C@@H]3Cc3ccc(OC)c(OC)c3)cc2OC)cc1`, the concentration for half-maximal inhibition (IC50) in assay [1] and in assay [2] was > 50 µM each time.

As to `COc1cc(C[C@H]2C(=O)OC[C@@H]2Cc2ccc(OC)c(OC)c2)ccc1NC(=O)Cc1ccccc1`, the IC50 in assay [1] and in assay [2] was > 50 µM throughout.

Turning to `COc1cc(C[C@H]2C(=O)OC[C@@H]2Cc2ccc(OC)c(OC)c2)ccc1Nc1ccc([N+](=O)[O-])cc1`, the half-maximal inhibitory concentration (IC50) was 22.1 µM in assay [1] and > 50 µM in assay [2].

Take `COc1cc(C[C@H]2C(=O)OC[C@@H]2Cc2ccc(OC)c(OC)c2)ccc1NC(C)=O`: the IC50 in assay [1] and in assay [2] was > 50 µM throughout.
